Laboratory results: US11229655B2, “Fulvestrant formulations” (Fresenius Kabi USA, LLC, priority 2014, dated 2022)
≈ marks a conversion by molar mass, not a printed value. Read-outs that look alike come from different tables or passages of the source.

How the values were obtained:
[1] = Fulvestrant solubility in castor oil based liquid formulations, HPLC assay; assay type: physicochemical; details: castor oil q.s., 10% w/v ethanol, 10% w/v benzyl alcohol
Procedure: To determine the effect of other compounds on the solubility of fulvestrant in a castor oil vehicle containing 10% ethanol and 10% benzyl alcohol, several liquid formulations were prepared by mixing using standard techniques, as summarized in Table 1. Fulvestrant solubility in each formulation was determined by an HPLC assay.

[2] = cited from earlier work
[3] = U.S. Pat. No. 6,774,122, cited from earlier work

In the case of `C[C@]12CC[C@@H]3c4ccc(O)cc4C[C@@H](CCCCCCCCC[S+]([O-])CCCC(F)(F)C(F)(F)F)[C@H]3[C@@H]1CC[C@@H]2O` (stereo partly drawn) [Fulvestrant, 7α-[9-(4,4,5,5,5-pentafluoropentylsulfinyl)nonyl]oestra-1,3,5(10)-triene 3,17 β-diol], the solubility ([1]; castor oil based liquid formulation, oil or lipid, 0.05% w/v polysorbate 80, read-out: Solubility) is reported as 76.5 mg/mL (≈ 126 mM), the solubility ([1]; castor oil based liquid formulation, oil or lipid, 0.1% w/v polysorbate 80, read-out: Solubility) is reported as 82.5 mg/mL (≈ 136 mM) and the solubility ([1]; castor oil based liquid formulation, oil or lipid, 0.16% w/v polysorbate 80, read-out: Solubility) is reported as 90 mg/mL (≈ 148 mM). It also gave a solubility ([1]; castor oil based liquid formulation, oil or lipid, 0.2% w/v polysorbate 80, read-out: Solubility) of 95 mg/mL (≈ 157 mM), a solubility ([1]; castor oil based liquid formulation, oil or lipid, 15% w/v ethyl oleate, read-out: Solubility) of 66.8 mg/mL (≈ 110 mM) and a solubility ([1]; castor oil based liquid formulation, oil or lipid, 15% w/v isopropyl myristate, read-out: Solubility) of 63.9 mg/mL (≈ 105 mM). The solubility ([1]; castor oil based liquid formulation, oil or lipid, 15% w/v isopropyl palmitate, read-out: Solubility) was 67.6 mg/mL (≈ 111 mM), the solubility ([1]; 0.09% w/v polysorbate 80) was 82.1 mg/mL (≈ 135 mM) and the solubility in water [2] was “practically insoluble in water”. For the same compound, the “solubility of fulvestrant in a castor oil vehicle” value ([3]; castor oil vehicle containing 10% ethanol, 10% benzyl alcohol, 15% benzyl benzoate) was 65 mg/mL and the “solubility of fulvestrant in castor oil” value ([3]; castor oil) was 20 mg/mL.
